This passage reports inhibition results from patent US10759781B2, “Substituted guanidine derivatives” (UBE INDUSTRIES, LTD., priority 2015, dated 2020).

Where a name gives a salt, the structure may show the parent alone.

This experiment addresses T1, Human VAP-1 enzyme (Homo sapiens, UniProt Q16853).
T1 construct: purchased R&D Systems, Inc
T1 sequence (Q16853 1-763): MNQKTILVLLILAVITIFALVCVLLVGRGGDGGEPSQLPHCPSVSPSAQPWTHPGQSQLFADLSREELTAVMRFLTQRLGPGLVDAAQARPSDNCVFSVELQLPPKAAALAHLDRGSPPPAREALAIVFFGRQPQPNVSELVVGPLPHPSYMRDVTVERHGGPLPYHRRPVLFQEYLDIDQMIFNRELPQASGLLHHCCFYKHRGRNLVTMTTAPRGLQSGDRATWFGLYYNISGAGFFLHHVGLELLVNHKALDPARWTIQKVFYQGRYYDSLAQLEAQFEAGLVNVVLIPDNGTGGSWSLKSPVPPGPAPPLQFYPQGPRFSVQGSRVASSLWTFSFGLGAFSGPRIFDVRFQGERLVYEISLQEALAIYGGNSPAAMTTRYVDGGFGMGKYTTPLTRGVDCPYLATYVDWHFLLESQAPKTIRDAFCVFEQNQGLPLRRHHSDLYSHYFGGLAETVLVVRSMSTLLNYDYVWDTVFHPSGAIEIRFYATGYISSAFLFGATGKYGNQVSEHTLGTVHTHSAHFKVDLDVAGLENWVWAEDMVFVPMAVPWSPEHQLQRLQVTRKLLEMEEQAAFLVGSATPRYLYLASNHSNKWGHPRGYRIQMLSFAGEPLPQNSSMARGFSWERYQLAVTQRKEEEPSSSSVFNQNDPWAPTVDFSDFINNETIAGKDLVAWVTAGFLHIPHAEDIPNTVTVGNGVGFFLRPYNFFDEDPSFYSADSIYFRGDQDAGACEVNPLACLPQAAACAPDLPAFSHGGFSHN
As to the kind of experiment: Human VAP-1 enzyme inhibition test. The following applies: 1 h; compound 30 nM; 14C-benzylamine 100 μM; read-out: inhibition ratio (human VAP-1 enzyme). The class given is biochemical. On the procedure:
Human VAP-1 enzyme inhibition test
This test was conducted by modifying the method of P. H. Yu et al. (Diabetologia 40 1243 (1997)). Human VAP-1 enzyme (R&D Systems, Inc.) was pre-incubated in a 96-well plate with the compound dissolved in dimethylsulfoxide at room temperature for 20 minutes. Next, in a solution to the final volume of 200 μL, the enzyme reaction solution was incubated with ^14C-benzylamine (final concentration 100 μM) at 37° C. for 1 hour. The reaction was terminated by the addition of 100 μL of 2 M citric acid solution to the reaction solution. The oxidative product was extracted using a toluene/ethyl acetate mixture and the radioactivity was measured with a liquid scintillation counter. The inhibition ratio of the compound was calculated using the following equation. Inhibition ratio={1−[VAP-1 enzyme activity after treatment with the compound]/[VAP-1 enzyme activity in the presence of dimethylsulfoxide alone without the compound]}×100
As for `N=C(N)NC(=O)OCc1cccc(-c2cnc(N3CC(=NOCC(F)F)C3)nc2)c1F` [Example 6, 3-(2-{3-[(2,2-Difluoroethoxy)imino]azetidin-1-yl}pyrimidin-5-yl)-2-fluorobenzyl carbamimidoylcarbamate], the inhibition at 0.03 µM is no less than 50%.

Take `N=C(N)NC(=O)OCc1cccc(-c2cnc(N3CC(=NOCC(F)(F)F)C3)nc2)c1F` [Example 7, 2-Fluoro-3-(2-{3-[(2,2,2-trifluoroethoxy)imino]azetidin-1-yl}pyrimidin-5-yl)benzyl carbamimidoylcarbamate]: the inhibition at 0.03 µM is no less than 50%.

`N=C(N)NC(=O)OCc1cccc(-c2cnc(N3CC(=NOCCCF)C3)nc2)c1F` [Example 8, 2-Fluoro-3-(2-{3-[(3-fluoropropoxy)imino]azetidin-1-yl}pyrimidin-5-yl)benzyl carbamimidoylcarbamate]: the inhibition at 0.03 µM was no less than 50%.

With `CC(=O)OCCON=C1CN(c2ncc(-c3cccc(COC(=O)NC(=N)N)c3F)cn2)C1` [Example 25, 2-[({1-[5-(3-{[(Carbamimidoylcarbamoyl)oxy]methyl}-2-fluorophenyl)pyrimidin-2-yl]azetidin-3-ylidene}amino)oxy]ethyl acetate], the inhibition at 0.03 µM is no less than 50%.

Turning to `CON=C1CN(c2ncc(-c3cccc(COC(=O)NC(=N)N)c3F)cc2C#N)C1` [Example 43, 3-{5-Cyano-6-[3-(methoxyimino)azetidin-1-yl]pyridin-3-yl}-2-fluorobenzyl carbamimidoylcarbamate], the inhibition at 0.03 µM was no less than 50%.

With `CON=C1CN(c2ncc(-c3cccc(COC(=O)NC(=N)N)c3F)cc2Cl)C1` [Example 44, 3-{5-Chloro-6-[3-(methoxyimino)azetidin-1-yl]pyridin-3-yl}-2-fluorobenzyl carbamimidoylcarbamate], the inhibition at 0.03 µM is no less than 50%.

Turning to `CON=C1CN(c2ncc(-c3cccc(COC(=O)NC(=N)N)c3F)cc2C(F)F)C1` [Example 45, 3-{5-(Difluoromethyl)-6-[3-(methoxyimino)azetidin-1-yl]pyridin-3-yl}-2-fluorobenzyl carbamimidoylcarbamate], the inhibition at 0.03 µM is no less than 50%.

Take `CON=C1CN(c2ncc(-c3cccc(COC(=O)NC(=N)N)c3F)cc2C2CC2)C1` [Example 46, 3-{5-Cyclopropyl-6-[3-(methoxyimino)azetidin-1-yl]pyridin-3-yl}-2-fluorobenzyl carbamimidoylcarbamate]: the inhibition at 0.03 µM was no less than 50%.

Turning to `CCc1cc(-c2cccc(COC(=O)NC(=N)N)c2F)cnc1N1CC(=NOC)C1` [Example 47, 3-{5-Ethyl-6-[3-(methoxyimino)azetidin-1-yl]pyridin-3-yl}-2-fluorobenzyl carbamimidoylcarbamate], the inhibition at 0.03 µM was no less than 50%.

Consider `COCc1cc(-c2cccc(COC(=O)NC(=N)N)c2F)cnc1N1CC(=NOC)C1` [Example 49, 2-Fluoro-3-{6-[3-(methoxyimino)azetidin-1-yl]-5-(methoxymethyl)pyridin-3-yl}benzyl carbamimidoylcarbamate], for which the inhibition at 0.03 µM was no less than 50%.

With `CON=C1CN(c2ncc(-c3cccc(COC(=O)NC(=N)N)c3F)cc2OC)C1` [Example 50, 2-Fluoro-3-{5-methoxy-6-[3-(methoxyimino)azetidin-1-yl]pyridin-3-yl}benzyl carbamimidoylcarbamate], the inhibition at 0.03 µM is no less than 50%.

In the case of `N=C(N)NC(=O)OCc1cccc(-c2cnc(N3CC(=NOCCO)C3)nc2)c1F` [Example 71, 2-Fluoro-3-(2-{3-[(2-hydroxyethoxy)imino]azetidin-1-yl}pyrimidin-5-yl)benzyl carbamimidoylcarbamate hydrochloride], the inhibition at 0.03 µM is no less than 50%.

As to `N=C(N)NC(=O)OCc1cccc(-c2cnc(N3CC(=NOCCCCO)C3)nc2)c1F` [Example 73, 2-Fluoro-3-(2-{3-[(4-hydroxybutoxy)imino]azetidin-1-yl}pyrimidin-5-yl)benzyl carbamimidoylcarbamate], the inhibition at 0.03 µM was no less than 50%.

For the compound `N=C(N)NC(=O)OCc1cccc(-c2cnc(N3CC(=NOCCOCCO)C3)nc2)c1F` [Example 74, 2-Fluoro-3-[2-(3-{[2-(2-hydroxyethoxy)ethoxy]imino}azetidin-1-yl)pyrimidin-5-yl]benzyl carbamimidoylcarbamate], the inhibition at 0.03 µM is no less than 50%.

Regarding `N=C(N)NC(=O)OCc1cccc(-c2cnc(N3CC(=NOCC(CO)CF)C3)nc2)c1F` (stereo not drawn) [Example 75, 2-Fluoro-3-[2-(3-{[3-fluoro-2-(hydroxymethyl)propoxy]imino}azetidin-1-yl)pyrimidin-5-yl]benzyl carbamimidoylcarbamate], the inhibition at 0.03 µM was no less than 50%.

As to `COC(CO)CCON=C1CN(c2ncc(-c3cccc(COC(=O)NC(=N)N)c3F)cn2)C1` (stereo not drawn) [Example 76, 2-Fluoro-3-(2-{3-[(4-hydroxy-3-methoxybutoxy)imino]azetidin-1-yl}pyrimidin-5-yl)benzyl carbamimidoylcarbamate], the inhibition at 0.03 µM was no less than 50%.

Regarding `CC(=O)OCC(CO)CON=C1CN(c2ncc(-c3cccc(COC(=O)NC(=N)N)c3F)cn2)C1` (stereo not drawn) [Example 77, 3-[({1-[5-(3-{[(Carbamimidoylcarbamoyl)oxy]methyl}-2-fluorophenyl)pyrimidin-2-yl]azetidin-3-ylidene}amino)oxy]-2-(hydroxymethyl)propyl acetate], the inhibition at 0.03 µM is no less than 50%.

With `N=C(N)NC(=O)OCc1cccc(-c2cnc(N3CC(=NOCC(CO)CO)C3)nc2)c1F` [Example 92, 2-Fluoro-3-[2-(3-{[3-hydroxy-2-(hydroxymethyl)propoxy]imino}azetidin-1-yl)pyrimidin-5-yl]benzyl carbamimidoylcarbamate], the inhibition at 0.03 µM was no less than 50%.

Consider `N=C(N)NC(=O)OCc1cccc(-c2cnc(N3CC(=NOCC(O)CO)C3)nc2)c1F` (stereo not drawn) [Example 93, 3-(2-{3-[(2,3-Dihydroxypropoxy)imino]azetidin-1-yl}pyrimidin-5-yl)-2-fluorobenzyl carbamimidoylcarbamate], for which the inhibition at 0.03 µM is no less than 50%.

Turning to `COCC(CO)CON=C1CN(c2ncc(-c3cccc(COC(=O)NC(=N)N)c3F)cn2)C1` (stereo not drawn) [Example 100, 2-Fluoro-3-[2-(3-{[3-hydroxy-2-(methoxymethyl)propoxy]imino}azetidin-1-yl)pyrimidin-5-yl]benzyl carbamimidoylcarbamate], the inhibition at 0.03 µM was no less than 50%.

With `N=C(N)NC(=O)OCc1cccc(-c2cnc(N3CC(=NOCC(F)CO)C3)c(F)c2)c1F` (stereo not drawn) [Example 103, 2-Fluoro-3-(5-fluoro-6-{3-[(2-fluoro-3-hydroxypropoxy)imino]azetidin-1-yl}pyridin-3-yl)benzyl carbamimidoylcarbamate], the inhibition at 0.03 µM is no less than 50%.

Consider `COCC(O)CON=C1CN(c2ncc(-c3cccc(COC(=O)NC(=N)N)c3F)cn2)C1` (stereo not drawn) [Example 104, 2-Fluoro-3-(2-{3-[(2-hydroxy-3-methoxypropoxy)imino]azetidin-1-yl}pyrimidin-5-yl)benzyl carbamimidoylcarbamate], for which the inhibition at 0.03 µM is no less than 50%.

`N=C(N)NC(=O)OCc1cccc(-c2cnc(N3CC(=NO)C3)c(F)c2)c1F` [Example 107, 2-Fluoro-3-{5-fluoro-6-[3-(hydroxyimino)azetidin-1-yl]pyridin-3-yl}benzyl carbamimidoylcarbamate]: the inhibition at 0.03 µM is no less than 50%.

Regarding `CC(C)(C)OC(=O)CON=C1CN(c2ncc(-c3cccc(COC(=O)NC(=N)N)c3F)cn2)C1` [Example 108, tert-Butyl 2-[({1-[5-(3-{[(carbamimidoylcarbamoyl)oxy]methyl}-2-fluorophenyl)pyrimidin-2-yl]azetidin-3-ylidene}amino)oxy]acetate], the inhibition at 0.03 µM was no less than 50%.

Turning to `CNC(=O)CON=C1CN(c2ncc(-c3cccc(COC(=O)NC(=N)N)c3F)cn2)C1` [Example 111, 2-Fluoro-3-[2-(3-{[2-(methylamino)-2-oxoethoxy]imino}azetidin-1-yl)pyrimidin-5-yl]benzyl carbamimidoylcarbamate], the inhibition at 0.03 µM was no less than 50%.

Consider `N=C(N)NC(=O)OCc1cccc(-c2cnc(N3CC(=NOCCC(N)=O)C3)nc2)c1F` [Example 112, 3-(2-{3-[(3-Amino-3-oxopropoxy)imino]azetidin-1-yl}pyrimidin-5-yl)-2-fluorobenzyl carbamimidoylcarbamate], for which the inhibition at 0.03 µM was no less than 50%.

Turning to `CNC(=O)CCON=C1CN(c2ncc(-c3cccc(COC(=O)NC(=N)N)c3F)cn2)C1` [Example 113, 2-Fluoro-3-[2-(3-{[3-(methylamino)-3-oxopropoxy]imino}azetidin-1-yl)pyrimidin-5-yl]benzyl carbamimidoylcarbamate], the inhibition at 0.03 µM was no less than 50%.
